Common to all, as to format: physicochemical
Series [1] can be described thus: In vitro gastrointestinal digestion assay (simulated stomach and duodenum). To be noted: pH 1.2. On the procedure: An amount of the solid ligand-modified poly oxo-hydroxy ferric iron materials or control iron materials namely ferrous sulphate, ferric chloride, or unmodified ferric oxo-hydroxide, equivalent to 60 mg elemental iron, were added to a synthetic gastric (stomach) solution (50 mL of 2 g/L NaCl, 0.15 M HCl and 0.3 mg/mL porcine pepsin) and incubated at 37° C. for 30 minutes with radial shaking. […] The mixture was incubated at 37° C. for 60 min with radial shaking. Homogeneous Aliquots (1 mL) were collected at different time points during the process and centrifuged at 13,000 rpm for 10 minutes to separate the aggregate and aquated phases. The supernatant was analysed for iron content by ICPOES. […] The mass of remaining material (i.e. the wet pellet) was recorded. Concentrated HNO3 was added to this wet pellet and the new mass recorded. […] The starting amount of iron was calculated from the iron in the wet pellet plus the iron in the supernatant. To differentiate between soluble iron and aquated particulate iron in the supernatant, at each time point, this fraction was also ultrafiltered (Vivaspin 3,000 Da molecular weight cut-off polyethersulfone membrane, Sartorius Stedium Biotech GmbH, Goettingen, Germany) and again analysed by ICPOES. […]

A short description of series [2]: Screening assay: formation (precipitation) of solid poly oxo-hydroxy iron in presence of ligand. To be noted: ratios 1:1 to 1:5. The method, then: A series of dietary ligands was tested in a screening assay for their effects on the formation of solid ligand-modified poly oxo-hydroxy metal ion materials. Briefly, in a centrifuge tube, a fixed volume of stock solution of ferric iron (400 mM FeCl3 with 50 mM MOPS, pH 1.4) was mixed with varying volumes of a stock solution of ligand (400 mM with the exception of maltol which was 200 mM, plus MOPS at 50 mM and 0.9% NaCl) to obtain the desired metal:ligand ratio. The volumes were then equally adjusted to parity with a solution of 50 mM MOPS and 0.9% NaCl. […] A small aliquot was taken to confirm the starting iron concentration and then the pH was raised to ˜6.5 by drop-wise addition of concentrated NaOH to avoid high volume changes. After centrifugation at 2500 rpm for 10 minutes, an aliquot of supernatant was taken to analyse the iron remaining in solution. The remaining supernatant was discarded and a fixed volume of dissolution buffer at pH 6 (MOPS10 mM) or pH 4 (Acetic acid 10 mM) was then added to the wet solid of each tube and incubated overnight at room temperature. The tubes were then centrifuged (2500 rpm for 10 minutes) and an aliquot of supernatant taken to determine the iron that was disaggregated. The iron concentration in each aliquot was measured by ICPOES analysis.
Initially, the ligands were all tested using the screening assay described above at ratios of 1:1 to 1:5 and classified in three groups.

Series [3] in a line: Screening assay: re-dissolution of the wet solid in pH 6 and pH 4 buffers. To be noted: solid formed with the ligand. The method, then:
A series of dietary ligands was tested in a screening assay for their effects on the formation of solid ligand-modified poly oxo-hydroxy metal ion materials. […] The volumes were then equally adjusted to parity with a solution of 50 mM MOPS and 0.9% NaCl. […] After centrifugation at 2500 rpm for 10 minutes, an aliquot of supernatant was taken to analyse the iron remaining in solution. […] The iron concentration in each aliquot was measured by ICPOES analysis.

SMILES strings stand for the structures.

As for `O=S(=O)([O-])[O-].[Fe+2]` [Ferrous sulphate, ferrous sulphate], in series [1], the “gastric disaggregation and dissolution profile (in words)” value is “disaggregates and dissolves very well”.
As to `NC(=O)CC[C@H](N)C(=O)O` [glutamine], in series [2], the “Ligand group by effect on the amount of solid material formed” value (shortened to “Ligand group by effect on the amount”) was “intermediate ligands”.
As for `O=C(O)CC(O)C(=O)O` (centres unmarked) [malic acid], in series [2], the “Ligand group by effect on the amount” value is “intermediate ligands”.
Regarding `Cc1occc(=O)c1O` [maltol], in series [3], the “re-dissolution of the iron at pH 6.0 (in words)” value is recorded as “did not promote any re-dissolution”.
As to `O=C(O)C(O)C(O)C(=O)O` (centres unmarked) [tartaric acid], in series [2], the “Ligand group by effect on the amount” value is reported as “intermediate ligands”.

The values are drawn from patent US8058462B2, “Ligand modified poly oxo-hydroxy metal ion materials, their uses and processes for their preparation” (Medical Research Council, priority 2007, dated 2011).
